In one assay the test system is P388. In words: Antineoplastic activity against P-388 (murine leukemia) cell line. To be noted: Mus musculus. The assay is classed as functional, cell-based.
Another assay concerns SK-MEL-28. In words: Antineoplastic activity against MEL-28 human melanoma carcinoma cell cultures. In kind it is functional, cell-based.
The test system of the next assay is A549. In words: Antineoplastic activity against A-549 (human lung carcinoma) cell line. The assay is classed as functional, cell-based.
Another assay has as its system CV-1. In words: Antineoplastic activity against CV-1 (monkey kidney fibroblast) cell line. In kind it is functional, cell-based, Cercopithecidae. The settings on record: Chlorocebus aethiops.
The test system of another assay is HT-29. Briefly: Antineoplastic activity against HT-29 (human colon carcinoma) cell line. In kind it is functional, cell-based.
Assay [1] in a line: Selectivity index was evaluated by antineoplastic activity against HT-29 cells and compared with cytotoxicity against normal cells. In kind it is functional.

By IC50 is commonly meant the concentration needed to halve the response being measured. For `CO/N=C/[C@@H]1Cc2cc3c(cc2[C@@H](c2cc(OC)c(OC)c(OC)c2)[C@@H]1C(=O)OC)OCO3`, the IC50 with P388 was 10900 nM; in the assay on SK-MEL-28, greater than 21900 nM; in the assay with A549, 21900 nM; in the assay on CV-1, greater than 21900 nM; in the assay on HT-29 it was greater than 21900 nM.
On to `COC(=O)[C@@H]1C(/C=N/NCC(F)(F)F)=Cc2cc3c(cc2[C@H]1c1cc(OC)c(OC)c(OC)c1)OCO3`, for which the IC50 amounted to 480 nM with P388; 480 nM in the assay on SK-MEL-28; 190 nM with A549; 480 nM in the assay on CV-1; 48 nM in the assay on HT-29. For the same molecule, in assay [1], the Selectivity index is given as 10.
Take `COc1cc([C@@H]2c3cc4c(cc3[C@H](O)[C@H]3COC(=O)[C@H]23)OCO4)cc(OC)c1OC` [PODOFILOX]: the IC50 amounted to 12 nM in the assay with P388, 12 nM in the assay with A549, 29 nM in the assay on CV-1 and 29 nM in the assay on HT-29.
Take `COc1cc([C@@H]2c3cc4c(cc3C(=O)[C@H]3COC(=O)[C@@H]23)OCO4)cc(OC)c1OC` [PICROPODOPHYLLONE]: the concentration for half-maximal inhibition (IC50) in the assay on P388 was 12000 nM; with A549, 12000 nM; in the assay with CV-1, 48000 nM; with HT-29, 12000 nM.
For the molecule `COc1cc([C@@H]2c3cc4c(cc3C[C@H]3COC(=O)[C@@H]32)OCO4)cc(OC)c1OC` [DESOXYPODOPHYLLOTOXIN], the IC50 in the assay with P388 was 10 nM; with A549, less than 6 nM; in the assay with CV-1, 6 nM; with HT-29, 6 nM.
As for `COc1cc([C@@H]2c3cc4c(cc3C=C(/C=N/Nc3ccccc3)[C@H]2CO)OCO4)cc(OC)c1OC`, the IC50 stood at 1020 nM in the assay on P388; 510 nM in the assay with SK-MEL-28; 1020 nM in the assay on A549; 1020 nM in the assay on CV-1; 2050 nM in the assay on HT-29.
In the case of `COC(=O)[C@H]1[C@H](c2cc(OC)c(OC)c(OC)c2)c2cc3c(cc2C[C@H]1C=O)OCO3`, the half-maximal inhibitory concentration (IC50) in the assay on P388, in the assay with SK-MEL-28, in the assay with A549, with CV-1 and in the assay with HT-29 was 2340 nM throughout.
In the case of `COC(=O)[C@@H]1C(/C=N/N)=Cc2cc3c(cc2[C@H]1c1cc(OC)c(OC)c(OC)c1)OCO3`, the 50% inhibitory concentration (IC50) in the assay on P388 turned out to be 570 nM; in the assay on SK-MEL-28, 1140 nM; in the assay on A549, 570 nM; in the assay with CV-1, 2270 nM; with HT-29, 570 nM.
Take `COC(=O)[C@@H]1[C@H](CO)Cc2cc3c(cc2[C@H]1c1cc(OC)c(OC)c(OC)c1)OCO3`: the IC50 in the assay with P388 was found to be 58 nM; in the assay on SK-MEL-28, 58 nM; with A549, 58 nM; with CV-1 it was 58 nM; in the assay on HT-29 it was 120 nM.
Turning to `COC(=O)[C@@H]1C(C=O)=Cc2cc3c(cc2[C@H]1c1cc(OC)c(OC)c(OC)c1)OCO3` [PODOPHYLLIC ALDEHYDE], the IC50 was determined as 230 nM in the assay on P388; 230 nM with SK-MEL-28; 120 nM in the assay on A549; 230 nM in the assay with CV-1; 12 nM with HT-29. Moreover, the Selectivity index in assay [1] stood at 20.
On to `CO/N=C/C1=Cc2cc3c(cc2[C@@H](c2cc(OC)c(OC)c(OC)c2)[C@@H]1C(=O)OC)OCO3`, for which the IC50 with P388, in the assay on SK-MEL-28, in the assay on A549, in the assay on CV-1 and in the assay on HT-29 was 220 nM in each case.
Take `COC(=O)[C@H]1[C@H](c2cc(OC)c(OC)c(OC)c2)c2cc3c(cc2C(=O)[C@H]1CO)OCO3`: the IC50 in the assay with P388, in the assay on SK-MEL-28, in the assay with A549, in the assay on CV-1 and with HT-29 was 5630 nM each time.
Regarding `COC(=O)[C@@H]1[C@H](COC(C)=O)Cc2cc3c(cc2[C@H]1c1cc(OC)c(OC)c(OC)c1)OCO3`, the IC50 in the assay with P388, in the assay on SK-MEL-28, in the assay with A549, with CV-1 and in the assay on HT-29 was 210 nM each time.
For the molecule `COc1cc([C@@H]2c3cc4c(cc3C=C(C=O)[C@H]2CO)OCO4)cc(OC)c1OC`, the IC50 with P388 worked out at 250 nM; in the assay with SK-MEL-28, 250 nM; in the assay on A549, 250 nM; with CV-1 it was 630 nM; in the assay on HT-29 it was 250 nM.
For the molecule `COC(=O)[C@@H]1C(/C=N/O)=Cc2cc3c(cc2[C@H]1c1cc(OC)c(OC)c(OC)c1)OCO3`, the half-inhibitory concentration (IC50) in the assay on P388, in the assay on SK-MEL-28, in the assay with A549, with CV-1 and in the assay with HT-29 was 2270 nM in each case.
With `COC(=O)[C@@H]1C(/C=N/Nc2ccccc2)=Cc2cc3c(cc2[C@H]1c1cc(OC)c(OC)c(OC)c1)OCO3`, the concentration for half-maximal inhibition (IC50) amounted to 1940 nM in the assay on P388; 4840 nM in the assay with SK-MEL-28; 970 nM in the assay on A549; 1940 nM in the assay on CV-1; 39 nM in the assay with HT-29. The molecule further came in with a Selectivity index in assay [1] of 50.
As for `COC(=O)[C@H]1[C@H](c2cc(OC)c(OC)c(OC)c2)c2cc3c(cc2[C@H](OC(C)=O)[C@H]1COC(C)=O)OCO3`, the IC50 in the assay on P388, in the assay with A549, with CV-1 and in the assay with HT-29 was 1100 nM each time.
Regarding `COC(=O)[C@H]1[C@H](c2cc(OC)c(OC)c(OC)c2)c2cc3c(cc2[C@H](O)[C@H]1CO)OCO3`, the IC50 in the assay on P388 is 220 nM; in the assay on A549, 220 nM; in the assay on CV-1, 450 nM; with HT-29, 450 nM.

The values are drawn from ChEMBL document CHEMBL1128055, “Selective cytotoxic cyclolignans” (Bioorg Med Chem Lett, 1995).
